Results taken from patent US4714701A, “Antiviral compounds” (Burroughs Wellcome Co., priority 1985, dated 1987).
Where two headings read alike, the source gives them in different places.

Legend:
herpes simplex [1] = experiment: Activity against herpes simplex (general statement); set-up: species or system herpes simplex virus
herpes simplex virus = experiment: Anti-HSV activity, plaque reduction assay; format: cell-based
Experimental: The inhibiting effect of the compounds of Example 1 and 2 against herpes simplex virus were determined by the plaque reduction assay.

herpes simplex [2] = conditions: prior art compound; cited from earlier work
EBV [3] = experiment: Anti-EBV activity (method described by Nonogama l. Pagano, 1971); format: cell-based, Epstein-Barr virus; conditions: human gammaherpesvirus 4
Experimental: The inhibitory effect of the compound of Example 2 against EBV was determined by the method described by Nonogama l. Pagano, 1971, Nature: New Biology, Vol. 233, 103-104.

EBV [4] = experiment: Activity against EBV infections (general statement); set-up: species or system Epstein-Barr virus
CMV = experiment: Activity against CMV infections (general statement); set-up: species or system cytomegalovirus
dogs = experiment: Toxicity in dogs, intravenous route; format: in vivo, dog; conditions: 60 mg/kg/day
Experimental: The toxicity of the compound of Example 2 was determined by administering the compound to dogs at a dosage of 60 mg/kg/day, by the intravenous route.

| Structure (SMILES) | activity against herpes simplex (herpes simplex [1]) | IC50 (herpes simplex virus) | activity against herpes simplex (herpes simplex [2]) | IC50 (EBV [3]) | activity against EBV infections (EBV [4]) | activity against CMV infections (CMV) | toxic effects (dogs) |
| --- | --- | --- | --- | --- | --- | --- | --- |
| Nc1nc2c(nc(N)n2COC(CO)CO)c(=O)[nH]1 [Example 1, 8-Amino-9-[(2-hydroxy-1-hydroxymethylethoxy)methyl]guanine] | particularly high activity | 0.5 µM | – | – | – | – | – |
| Nc1nc2c(ncn2COCCO)c(=O)[nH]1 [acyclovir, 9-(2-hydroxyethoxymethyl)guanine] | – | – | particularly good activity | – | – | – | – |
| Nc1nc2c(nnn2COC(CO)CO)c(=O)[nH]1 [Example 2, 5-Amino-3,6-dihydro-3-[(2-hydroxy-1-hydroxymethylethoxy)methyl]-7H-1,2,3-triazolo[4,5-d]pyrimidin-7-one] | – | 27.4 µM | – | 1 to 10 µM | especially potent activity | especially potent activity | No toxic effects were noted |
